Reference: ChEMBL document CHEMBL1201862, “PubChem BioAssay data set” (2004)
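How tested: cells in 96-well plates exposed to compound for 48 hours at five concentrations. GI50 = concentration required for 50% inhibition of growth.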 Activity calls are given as the source filed them. Cut-off read from the data, not from the text of the source: active = GI50 up to about 1.1 µM and inactive = higher.

Legend:
Test in all cases: NCI-60 cell line screen, 48 h
CAKI-1 = test system: CAKI-1
SK-OV-3 = test system: SK-OV-3
K562 = test system: K562
786-0 = test system: 786-0
RXF 393 = test system: RXF 393
SF-268 = test system: SF-268
SNB-75 = test system: SNB-75
A498 = test system: A498
UACC-62 = test system: UACC-62
COLO 205 = test system: COLO 205
HT-29 = test system: HT-29
CCRF-CEM = test system: CCRF-CEM
NCI-H23 = test system: NCI-H23
M14 = test system: M14
OVCAR-5 = test system: OVCAR-5
MCF7 = test system: MCF7
TK-10 = test system: TK-10
HCT-116 = test system: HCT-116
MDA-MB-435 = test system: MDA-MB-435
T47D = test system: T47D

Structure (SMILES)	GI50 (CAKI-1)	GI50 (SK-OV-3)	GI50 (K562)	GI50 (786-0)	GI50 (RXF 393)	GI50 (SF-268)	GI50 (SNB-75)	GI50 (A498)	GI50 (UACC-62)	GI50 (COLO 205)	GI50 (HT-29)	GI50 (CCRF-CEM)	GI50 (NCI-H23)	GI50 (M14)	GI50 (OVCAR-5)	GI50 (MCF7)	GI50 (TK-10)	GI50 (HCT-116)	GI50 (MDA-MB-435)	GI50 (T47D)
O=C1[C@H]2ON(c3ccccc3)C(c3ccccc3)[C@H]2C(=O)N1c1ccc(Cc2ccc(N3C(=O)[C@@H]4ON(c5ccccc5)C(c5ccccc5)[C@@H]4C3=O)cc2)cc1 (stereo partly drawn)	> 100 µM (inactive)	> 100 µM (inactive)	> 100 µM (inactive)	> 100 µM (inactive)	88.1 µM (inactive)	> 100 µM (inactive)	> 100 µM (inactive)	> 100 µM (inactive)	> 100 µM (inactive)	> 100 µM (inactive)	> 100 µM (inactive)	> 100 µM (inactive)	> 100 µM (inactive)	> 100 µM (inactive)	> 100 µM (inactive)	–	–	–	–	–
Cc1cn([C@H]2[C@@H](CO)C[C@H]2O)c(=O)[nH]c1=O	> 100 µM (inactive)	–	> 100 µM (inactive)	> 100 µM (inactive)	> 100 µM (inactive)	> 100 µM (inactive)	> 100 µM (inactive)	> 100 µM (inactive)	–	> 100 µM (inactive)	> 100 µM (inactive)	> 100 µM (inactive)	> 100 µM (inactive)	–	> 100 µM (inactive)	> 100 µM (inactive)	> 100 µM (inactive)	> 100 µM (inactive)	> 100 µM (inactive)	–
Cc1nc2ccccc2c(=O)n1/N=C(\N=N\c1cc(Cl)ccc1Cl)c1cccc(-c2ccco2)c1	> 100 µM (inactive)	> 100 µM (inactive)	> 10 µM (inactive)	> 100 µM (inactive)	67.8 µM (inactive)	92 µM (inactive)	> 100 µM (inactive)	> 100 µM (inactive)	48.1 µM (inactive)	> 100 µM (inactive)	> 100 µM (inactive)	> 10 µM (inactive)	> 100 µM (inactive)	> 100 µM (inactive)	> 100 µM (inactive)	–	> 100 µM (inactive)	53.3 µM (inactive)	–	–
O=S(=O)(N/N=C/c1ccc(Cl)c(Cl)c1)c1ccccc1	33.2 µM (inactive)	39.7 µM (inactive)	33.5 µM (inactive)	31.8 µM (inactive)	18.5 µM (inactive)	31 µM (inactive)	52 µM (inactive)	26.1 µM (inactive)	46.2 µM (inactive)	21.6 µM (inactive)	40.1 µM (inactive)	48.1 µM (inactive)	36.3 µM (inactive)	60.3 µM (inactive)	38.2 µM (inactive)	–	41.7 µM (inactive)	35.1 µM (inactive)	–	–
C/C(=N\NC(=S)N1CC2CCC(CC2)C1)c1cccc(C)n1	1.11 µM (active)	0.809 µM (active)	< 0.0112 µM (active)	1.08 µM (active)	3.72 µM (inactive)	0.533 µM (active)	2.64 µM (inactive)	3.11 µM (inactive)	0.621 µM (active)	0.01 µM (active)	0.01 µM (active)	0.01 µM (active)	2.49 µM (inactive)	0.269 µM (active)	1.46 µM (inactive)	–	2.54 µM (inactive)	< 0.0445 µM (active)	1.77 µM (inactive)	10 nM (active)
Cc1ccc(NC(=O)C(=O)C2NC(=S)NC2=O)c([N+](=O)[O-])c1 (stereo not drawn)	> 100 µM (inactive)	> 100 µM (inactive)	> 100 µM (inactive)	> 100 µM (inactive)	> 100 µM (inactive)	> 100 µM (inactive)	> 100 µM (inactive)	> 100 µM (inactive)	> 100 µM (inactive)	> 100 µM (inactive)	> 100 µM (inactive)	> 100 µM (inactive)	> 100 µM (inactive)	> 100 µM (inactive)	> 100 µM (inactive)	–	> 100 µM (inactive)	> 100 µM (inactive)	–	–
CCc1c(OC(C)=O)c2c(NC3OC(COC(C)=O)C(OC(C)=O)C(OC(C)=O)C3OC(C)=O)nc(OC)nc2oc1=O (stereo not drawn)	> 100 µM (inactive)	> 100 µM (inactive)	> 100 µM (inactive)	> 100 µM (inactive)	> 100 µM (inactive)	–	> 100 µM (inactive)	> 100 µM (inactive)	> 100 µM (inactive)	> 100 µM (inactive)	> 100 µM (inactive)	> 100 µM (inactive)	> 100 µM (inactive)	> 100 µM (inactive)	> 100 µM (inactive)	–	> 100 µM (inactive)	> 100 µM (inactive)	–	–
Cc1ccc(S(=O)(=O)N/N=C\c2c3ccccc3[n+](C)c3ccccc23)cc1	17.7 µM (inactive)	> 100 µM (inactive)	15.6 µM (inactive)	28.1 µM (inactive)	15.9 µM (inactive)	29.2 µM (inactive)	20 µM (inactive)	20.4 µM (inactive)	19.8 µM (inactive)	–	19.4 µM (inactive)	15.3 µM (inactive)	21.1 µM (inactive)	26 µM (inactive)	> 100 µM (inactive)	–	48.3 µM (inactive)	30.5 µM (inactive)	–	–
